Test results taken from the NIST ThermoML archive (doi:10.1016/j.jct.2004.12.008).
Numbers after ± are expanded uncertainties.

Columns and labels:
[1] = refractive index (Na D-line) (dimensionless); conditions: 293.15 K; 101.33 kPa; Liquid; Standard Abbe refractometry
[2] = 101 kPa, Liquid
[3] = xn = mol fraction of the nth substance listed; conditions: 101 kPa, Liquid

Cc1ccc(C)cc1 [1,4-dimethylbenzene]
refractive index [1]: 1.49577 ± 0.00075 | mass density ([2]; 293.15 K): 861 ± 1.9 kg/m3 | mass density ([2]; 303.15 K): 852.28 ± 2 kg/m3 | mass density ([2]; 313.15 K): 843.58 ± 2.1 kg/m3 | mass density ([2]; 323.15 K): 834.92 ± 2.1 kg/m3 | mass density ([2]; 333.15 K): 826.27 ± 2.2 kg/m3 | mass density ([2]; 343.15 K): 817.66 ± 2.3 kg/m3 | mass density ([2]; 353.15 K): 809.07 ± 2.4 kg/m3

CCc1ccccc1 [ethylbenzene] + O=[N+]([O-])c1ccccc1
mass density ([3]; 293.15 K, x1 = 1): 867.82 ± 14 kg/m3 | mass density ([3]; 303.15 K, x1 = 1): 858.6 ± 14 kg/m3 | mass density ([3]; 313.15 K, x1 = 1): 851.85 ± 15 kg/m3 | mass density ([3]; 323.15 K, x1 = 1): 847.58 ± 15 kg/m3 | mass density ([3]; 333.15 K, x1 = 1): 845.79 ± 15 kg/m3 | mass density ([3]; 343.15 K, x1 = 1): 846.48 ± 15 kg/m3

c1ccccc1 [benzene]
refractive index [1]: 1.5009 ± 0.0007 | mass density ([2]; 293.15 K): 877.8 ± 1.6 kg/m3 | mass density ([2]; 303.15 K): 867.99 ± 1.7 kg/m3 | mass density ([2]; 313.15 K): 857.87 ± 1.8 kg/m3 | mass density ([2]; 323.15 K): 847.4 ± 1.9 kg/m3 | mass density ([2]; 333.15 K): 836.59 ± 2 kg/m3 | mass density ([2]; 343.15 K): 825.42 ± 2.1 kg/m3

Cc1ccccc1 [toluene] + O=[N+]([O-])c1ccccc1
mass density ([3]; 293.15 K, x1 = 1): 866.75 ± 2.5 kg/m3 | mass density ([3]; 303.15 K, x1 = 1): 857.53 ± 2.6 kg/m3 | mass density ([3]; 313.15 K, x1 = 1): 848.25 ± 2.6 kg/m3 | mass density ([3]; 323.15 K, x1 = 1): 838.9 ± 2.7 kg/m3 | mass density ([3]; 333.15 K, x1 = 1): 829.5 ± 2.7 kg/m3 | mass density ([3]; 343.15 K, x1 = 1): 820.03 ± 2.8 kg/m3 | mass density ([3]; 353.15 K, x1 = 1): 810.5 ± 2.9 kg/m3

CCc1ccccc1 [ethylbenzene]
refractive index [1]: 1.4962 ± 0.0008 | mass density ([2]; 293.15 K): 867.82 ± 14 kg/m3 | mass density ([2]; 303.15 K): 858.6 ± 14 kg/m3 | mass density ([2]; 313.15 K): 851.85 ± 15 kg/m3

Cc1ccccc1C [1,2-dimethylbenzene] + O=[N+]([O-])c1ccccc1
mass density ([3]; 293.15 K, x1 = 1): 878.6 ± 1.6 kg/m3 | mass density ([3]; 303.15 K, x1 = 1): 872.25 ± 1.7 kg/m3 | mass density ([3]; 313.15 K, x1 = 1): 859.67 ± 1.8 kg/m3 | mass density ([3]; 323.15 K, x1 = 1): 840.84 ± 1.9 kg/m3

C=Cc1ccccc1 [styrene]
refractive index [1]: 1.546 ± 0.0007 | mass density ([2]; 293.15 K): 906 ± 1.4 kg/m3 | mass density ([2]; 303.15 K): 896.44 ± 1.5 kg/m3 | mass density ([2]; 313.15 K): 886.88 ± 1.6 kg/m3 | mass density ([2]; 323.15 K): 877.32 ± 1.6 kg/m3 | mass density ([2]; 333.15 K): 867.76 ± 1.7 kg/m3 | mass density ([2]; 343.15 K): 858.2 ± 1.8 kg/m3 | mass density ([2]; 353.15 K): 848.64 ± 1.9 kg/m3

O=[N+]([O-])c1ccccc1 [nitrobenzene] + C=Cc1ccccc1
mass density ([3]; 293.15 K, x2 = 0): 1202.95 ± 2.3 kg/m3 | mass density ([3]; 303.15 K, x2 = 0): 1193.56 ± 2.2 kg/m3 | mass density ([3]; 313.15 K, x2 = 0): 1183.37 ± 2.1 kg/m3 | mass density ([3]; 323.15 K, x2 = 0): 1172.38 ± 2 kg/m3 | mass density ([3]; 333.15 K, x2 = 0): 1160.59 ± 1.9 kg/m3 | mass density ([3]; 343.15 K, x2 = 0): 1148 ± 1.9 kg/m3 | mass density ([3]; 353.15 K, x2 = 0): 1134.61 ± 1.8 kg/m3

Cc1ccccc1C [1,2-dimethylbenzene]
refractive index [1]: 1.50573 ± 0.00072 | mass density ([2]; 293.15 K): 878.6 ± 1.6 kg/m3 | mass density ([2]; 303.15 K): 872.25 ± 1.7 kg/m3 | mass density ([2]; 313.15 K): 859.67 ± 1.8 kg/m3 | mass density ([2]; 323.15 K): 840.84 ± 1.9 kg/m3

Cc1ccc(C)cc1 [1,4-dimethylbenzene] + O=[N+]([O-])c1ccccc1
mass density ([3]; 293.15 K, x1 = 1): 861 ± 1.9 kg/m3 | mass density ([3]; 303.15 K, x1 = 1): 852.28 ± 2 kg/m3 | mass density ([3]; 313.15 K, x1 = 1): 843.58 ± 2.1 kg/m3 | mass density ([3]; 323.15 K, x1 = 1): 834.92 ± 2.1 kg/m3 | mass density ([3]; 333.15 K, x1 = 1): 826.27 ± 2.2 kg/m3 | mass density ([3]; 343.15 K, x1 = 1): 817.66 ± 2.3 kg/m3 | mass density ([3]; 353.15 K, x1 = 1): 809.07 ± 2.4 kg/m3

O=[N+]([O-])c1ccccc1 [nitrobenzene]
refractive index [1]: 1.55488 ± 0.00072 | mass density ([2]; 293.15 K): 1202.95 ± 2.3 kg/m3 | mass density ([2]; 303.15 K): 1193.56 ± 2.2 kg/m3 | mass density ([2]; 313.15 K): 1183.37 ± 2.1 kg/m3 | mass density ([2]; 323.15 K): 1172.38 ± 2 kg/m3 | mass density ([2]; 333.15 K): 1160.59 ± 1.9 kg/m3 | mass density ([2]; 343.15 K): 1148 ± 1.9 kg/m3 | mass density ([2]; 353.15 K): 1134.61 ± 1.8 kg/m3

Cc1ccccc1 [toluene]
refractive index [1]: 1.4965 ± 0.0008 | mass density ([2]; 293.15 K): 866.75 ± 2.5 kg/m3 | mass density ([2]; 303.15 K): 857.53 ± 2.6 kg/m3 | mass density ([2]; 313.15 K): 848.25 ± 2.6 kg/m3 | mass density ([2]; 323.15 K): 838.9 ± 2.7 kg/m3 | mass density ([2]; 333.15 K): 829.5 ± 2.7 kg/m3 | mass density ([2]; 343.15 K): 820.03 ± 2.8 kg/m3 | mass density ([2]; 353.15 K): 810.5 ± 2.9 kg/m3

c1ccccc1 [benzene] + O=[N+]([O-])c1ccccc1
mass density ([3]; 293.15 K, x1 = 1): 877.8 ± 1.6 kg/m3 | mass density ([3]; 303.15 K, x1 = 1): 867.99 ± 1.7 kg/m3 | mass density ([3]; 313.15 K, x1 = 1): 857.87 ± 1.8 kg/m3 | mass density ([3]; 323.15 K, x1 = 1): 847.4 ± 1.9 kg/m3 | mass density ([3]; 333.15 K, x1 = 1): 836.59 ± 2 kg/m3 | mass density ([3]; 343.15 K, x1 = 1): 825.42 ± 2.1 kg/m3

Cc1cccc(C)c1 [1,3-dimethylbenzene]
refractive index [1]: 1.49735 ± 0.00082 | mass density ([2]; 293.15 K): 864.2 ± 2.5 kg/m3 | mass density ([2]; 303.15 K): 855.76 ± 2.6 kg/m3 | mass density ([2]; 313.15 K): 847.11 ± 2.6 kg/m3 | mass density ([2]; 323.15 K): 838.27 ± 2.7 kg/m3 | mass density ([2]; 333.15 K): 829.22 ± 2.7 kg/m3 | mass density ([2]; 343.15 K): 819.97 ± 2.8 kg/m3 | mass density ([2]; 353.15 K): 810.51 ± 2.9 kg/m3

Cc1cccc(C)c1 [1,3-dimethylbenzene] + O=[N+]([O-])c1ccccc1
mass density ([3]; 293.15 K, x1 = 1): 864.2 ± 2.5 kg/m3 | mass density ([3]; 303.15 K, x1 = 1): 855.76 ± 2.6 kg/m3 | mass density ([3]; 313.15 K, x1 = 1): 847.11 ± 2.6 kg/m3 | mass density ([3]; 323.15 K, x1 = 1): 838.27 ± 2.7 kg/m3 | mass density ([3]; 333.15 K, x1 = 1): 829.22 ± 2.7 kg/m3 | mass density ([3]; 343.15 K, x1 = 1): 819.97 ± 2.8 kg/m3 | mass density ([3]; 353.15 K, x1 = 1): 810.51 ± 2.9 kg/m3
